Test results: PubChem BioAssay (NCI)
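Values below derive from 48-hour exposures of cells grown in 96-well plates, with endpoints linearly interpolated between the two concentrations bracketing the appropriate inhibition level. At the GI50, growth is halved. TGI denotes the concentration required for complete inhibition of growth.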

Key:
Assay in all cases: NCI anticancer screen, dose series, 48 h
[1] = test system: 786-0 renal
[2] = test system: A498 renal
[3] = test system: A549 NSCLC
[4] = test system: BT-549 breast
[5] = test system: CAKI-1 renal
[6] = test system: CCRF-CEM leukemia
[7] = test system: COLO 205 colon
[8] = test system: DU-145 prostate
[9] = test system: EKVX NSCLC
[10] = test system: HCC-2998 colon
[11] = test system: HCT-116 colon
[12] = test system: HCT-15 colon
[13] = test system: HOP-62 NSCLC
[14] = test system: HOP-92 NSCLC
[15] = test system: HS 578T breast
[16] = test system: HT29 colon
[17] = test system: IGROV1 ovarian
[18] = test system: K-562 leukemia
[19] = test system: KM12 colon
[20] = test system: LOX IMVI melanoma
[21] = test system: M14 melanoma
[22] = test system: MALME-3M melanoma
[23] = test system: MCF7 breast
[24] = test system: MDA-MB-231 breast
[25] = test system: MDA-MB-435
[26] = test system: MOLT-4 leukemia
[27] = test system: NCI-H226 lung
[28] = test system: NCI-H23 lung
[29] = test system: NCI-H460 lung
[30] = test system: NCI-H522 lung
[31] = test system: NCI/ADR-RES ovarian
[32] = test system: OVCAR-3 ovarian
[33] = test system: OVCAR-4 ovarian
[34] = test system: OVCAR-5 ovarian
[35] = test system: OVCAR-8 ovarian
[36] = test system: PC-3 prostate
[37] = test system: RPMI-8226 leukemia
[38] = test system: RXF 393 renal
[39] = test system: SF-268 CNS
[40] = test system: SF-295 CNS
[41] = test system: SF-539 CNS
[42] = test system: SK-MEL-2 melanoma
[43] = test system: SK-MEL-28 melanoma
[44] = test system: SK-MEL-5 melanoma
[45] = test system: SK-OV-3 ovarian
[46] = test system: SN12C renal
[47] = test system: SNB-19 CNS
[48] = test system: SNB-75 CNS
[49] = test system: SW-620 colon
[50] = test system: T-47D breast
[51] = test system: TK-10 renal
[52] = test system: U251 CNS
[53] = test system: UACC-257 melanoma
[54] = test system: UACC-62 melanoma
[55] = test system: UO-31 renal

`CO/N=C(\COc1ccc2c(c1)oc(=O)c1cc(OC)ccc12)c1cccc(OC)c1` was tested, and the GI50 [1] was over 100 µM, the TGI [1] was over 100 µM and the GI50 [2] was 80.2 µM. It also gave a TGI [2] of over 100 µM, a GI50 [3] of over 100 µM and a TGI [3] of over 100 µM. The GI50 [4] was over 100 µM, the TGI [4] was over 100 µM and the GI50 [5] was over 100 µM. It also gave a TGI [5] of over 100 µM, a GI50 [6] of over 100 µM and a TGI [6] of over 100 µM. It also gave a GI50 [7] of over 100 µM, a TGI [7] of over 100 µM and a GI50 [8] of over 100 µM. The TGI [8] was over 100 µM, the GI50 [9] was over 100 µM and the TGI [9] was over 100 µM. It also gave a GI50 [10] of over 100 µM, a TGI [10] of over 100 µM and a GI50 [11] of over 100 µM. It also gave a TGI [11] of over 100 µM, a GI50 [12] of over 100 µM and a TGI [12] of over 100 µM. For the same compound, the GI50 [13] was over 100 µM, the TGI [13] was over 100 µM and the GI50 [14] was over 100 µM. It also gave a TGI [14] of over 100 µM, a GI50 [15] of over 100 µM and a TGI [15] of over 100 µM. For the same compound, the GI50 [16] was over 100 µM, the TGI [16] was over 100 µM and the GI50 [17] was over 100 µM. The TGI [17] was over 100 µM, the GI50 [18] was over 100 µM and the TGI [18] was over 100 µM. It also gave a GI50 [19] of over 100 µM, a TGI [19] of over 100 µM and a GI50 [20] of over 100 µM. For the same compound, the TGI [20] was over 100 µM, the GI50 [21] was over 100 µM and the TGI [21] was over 100 µM. The GI50 [22] was over 100 µM, the TGI [22] was over 100 µM and the GI50 [23] was over 100 µM. For the same compound, the TGI [23] was over 100 µM, the GI50 [24] was over 100 µM and the TGI [24] was over 100 µM. It also gave a GI50 [25] of over 100 µM, a TGI [25] of over 100 µM and a GI50 [26] of over 100 µM. For the same compound, the TGI [26] was over 100 µM, the GI50 [27] was over 100 µM and the TGI [27] was over 100 µM. It also gave a GI50 [28] of over 100 µM, a TGI [28] of over 100 µM and a GI50 [29] of over 100 µM. It also gave a TGI [29] of over 100 µM, a GI50 [30] of over 100 µM and a TGI [30] of over 100 µM. The GI50 [31] was over 100 µM, the TGI [31] was over 100 µM and the GI50 [32] was over 100 µM. The TGI [32] was over 100 µM, the GI50 [33] was over 100 µM and the TGI [33] was over 100 µM. The GI50 [34] was over 100 µM, the TGI [34] was over 100 µM and the GI50 [35] was over 100 µM. The TGI [35] was over 100 µM, the GI50 [36] was over 100 µM and the TGI [36] was over 100 µM. For the same compound, the GI50 [37] was over 100 µM, the TGI [37] was over 100 µM and the GI50 [38] was over 100 µM. The TGI [38] was over 100 µM, the GI50 [39] was over 100 µM and the TGI [39] was over 100 µM. It also gave a GI50 [40] of over 100 µM, a TGI [40] of over 100 µM and a GI50 [41] of over 100 µM. The TGI [41] was over 100 µM, the GI50 [42] was over 100 µM and the TGI [42] was over 100 µM. For the same compound, the GI50 [43] was over 100 µM, the TGI [43] was over 100 µM and the GI50 [44] was over 100 µM. It also gave a TGI [44] of over 100 µM, a GI50 [45] of over 100 µM and a TGI [45] of over 100 µM. It also gave a GI50 [46] of over 100 µM, a TGI [46] of over 100 µM and a GI50 [47] of over 100 µM. It also gave a TGI [47] of over 100 µM, a GI50 [48] of over 100 µM and a TGI [48] of over 100 µM. The GI50 [49] was over 100 µM, the TGI [49] was over 100 µM and the GI50 [50] was over 100 µM. It also gave a TGI [50] of over 100 µM, a GI50 [51] of over 100 µM and a TGI [51] of over 100 µM. The GI50 [52] was over 100 µM, the TGI [52] was over 100 µM and the GI50 [53] was over 100 µM. It also gave a TGI [53] of over 100 µM, a GI50 [54] of over 100 µM and a TGI [54] of over 100 µM. For the same compound, the GI50 [55] was over 100 µM and the TGI [55] was over 100 µM.
